Experimental data reported in US20220226311A1, “PROCASPASE-3 ACTIVATION AND IMMUNOTHERAPY FOR TREATMENT OF CANCER” (The Board of Trustees of the University of Illinois, priority 2019, published 2022).

Experiments:
HT-29 cells = experiment: Western blot for MLH1 and PARP-1 cleavage after PAC-1 treatment of cell lines; type: cell-based
Description: FIG. 3. PAC-1 treatment leads to MLH1 cleavage in the absence of Apoptotic Death Markers. Cell lines were incubated with indicated concentrations of PAC-1 for 72 hours, followed by western blot analysis for MLH1 protein level, as well as PARP-1, cleaved PARP-1 (c-PARP-1 is an apoptosis maker), and beta-actin (loading control).
Results. MSS/MSI status of colon cancer cell lines have been reported (Ahmed, D., et al., Oncogenesis 2013, 2, e71), allowing for selection of HT-29, an MSS colon cancer cell line. To date, studies that have focused on the cleavage of MLH1 have utilized strategies that broadly induce high levels of apoptotic cell death (i.e., with staurosporine). HT-29 cells were treated with sub-lethal PAC-1.

clinical = conditions: human, in vivo, 450 mg
GL261 neurospheres = experiment: Tumor infiltrating lymphocytes (CD3 staining) in orthotopic GL261 syngeneic model; type: in vivo, C57BL/6 mice; conditions: single-agent PAC-1 100 mg/kg PO x 10 days
Description: (§1) FIG. 4. PAC-1 treatment of mice with syngeneic tumors increases the numbers of tumor infiltrating lymphocytes. A) C57BL/6 mice with orthotopic transplant of GL261 neurospheres. Tumors were allowed to establish for 10 days, then mice (n=3/group) were treated with or without PAC-1 (100 mg/kg PO×10 days), then sacrificed. Tumors were stained for CD3 (brown) to identify T cell TILs. Data presented as average CD3^+ per 4 HPF/mouse. Magnification 100×. B) C57BL/6 mice with subcutaneous transplant of B16F10 cells. Tumors were allowed to establish for 7 days, then mice (n=8/group) were treated with or without PAC-1 (100 mg/kg IP×2×14 days), then sacrificed. Tumors were stained for CD3 (brown) to identify T cell TILs. Data presented as average CD3^+ per 10 HPF/mouse. Magnification 100×.

B16F10 cells = experiment: Tumor infiltrating lymphocytes (CD3 staining) in subcutaneous B16F10 syngeneic model; type: in vivo, C57BL/6 mice; conditions: single-agent PAC-1 100 mg/kg IP x2 x14 days
Description: as §1

[1] = Secondary malignancies in pet dogs with cancer treated with PAC-1; type: in vivo; conditions: pet dogs treated >6 months, >12 months after completion of therapy
From the text: (§2) It should be noted that cancer drugs can induce secondary cancers, for example, almost ⅓ of patients treated with single-agent vemurafenib develop secondary malignancies; but to date this has not been observed for PAC-1. Just as PAC-1 induces PC-3 cleavage selectively in cancer cells, the resulting caspase-3 activity should lead to selective MLH1 cleavage in cancer cells. It is worth noting that Turcot syndrome, a constitutional mismatch repair deficiency (CMMRD) cancer prone syndrome, is correlated with biallelic germline mutations in MMR genes, resulting in the development of GBM at a young age. Turcot syndrome and other CMMRD syndromes (i.e. Lynch Syndrome) point to the importance of maintaining MMR protein function, implying that inducing MLH1 cleavage/loss in a non-targeted, pan-organism fashion is not a viable therapeutic strategy. However, the strategy with PAC-1 leverages the well-known overexpression of PC-3 in cancer cells (including GBM) resulting in targeted MLH1 cleavage in tumors, leaving MMR proteins in normal cells unperturbed and operating.

[2] = Tolerability of PAC-1 in the human clinical trial; type: in vivo; conditions: patients taking PAC-1 for over 10 months (one at 450 mg daily)
From the text: as §2

cancer cells [3] = experiment: Transcript profile of cancer cells treated with PAC-1; type: cell-based
From the text: (§3) Increased immune cell infiltration in PAC-1 treated GL261 tumors. […] 3) PAC-1 is efficacious in in vivo settings with intact immune systems, including syngeneic mouse (EL4, K7M2, GL261) (FIG. 7) and rat (9L) models, and canine cancer patients.

[4] = Myelosuppression in animals and humans, including IND-enabling rat and dog studies; type: in vivo, mice, rats, dogs, or humans; conditions: also at very high doses in IND-enabling rat and dog studies
From the text: as §3

cancer cells [5] = experiment: DNA damage in cancer cells; type: cell-based
From the text: as §3

CT-26_WT cells = experiment: CT-26_WT subcutaneous tumor model; type: in vivo, BALB/c mice; conditions: sc CT-26_WT; PAC-1 100 mg/kg i.p., anti-PD-1 10 mg/kg, 2 or 4 doses; vs vehicle+anti-IgG
Description: FIG. 9. Growth of CT-26_WT in BALB/c mice after 2 doses (A) versus 4 doses (B). Open circle=vehicle+anti-IgG2A antibody; square=PAC-1 (100 mg/kg)+anti-IgG2a antibody; triangle=vehicle+anti-PD-1 mAb; inverted triangle=PAC-1 (100 mg/kg)+anti-PD-1 mAb.
FIG. 10. Analysis of treatment of BALB/c mice with PAC-1 and anti-PDL1 mAb. Open circle=vehicle+anti-IgG2A antibody; square=PAC-1 (100 mg/kg)+anti-IgG2a antibody; triangle=vehicle+anti-PD-1 mAb; inverted triangle=PAC-1 (100 mg/kg)+anti-PD-1 mAb.
FIG. 8 illustrates the development of a CT-26_WT subcutaneous disease model in BALB/c mice. At day 0, BALB/c mice were injected subcutaneously with 1×10^6 CT-26_WT cells. At various day intervals, selected mice were injected (i.p.) with an empty vehicle, PAC-1 (100 mg/kg), anti-PD-1 antibody (10 mg/kg; 2 doses), anti-PD-1 antibody (10 mg/kg; 4 doses), or a combination of PAC-1 (100 mg/kg) and anti-PD-1 antibody (10 mg/kg;) as shown in Table 1.

plasma cytokines = experiment: Cytokine array of plasma from mice treated with PAC-1; type: in vivo, BALB/c mice; conditions: PAC-1 x5 doses, pooled samples from 2-3 mice
Description: FIG. 12. A) Example treatment protocol. B) Cytokine array of plasma from BALB/c mice treated with PAC-1.
[…] were centrifuged at 8000 g for 10 mins, and plasma/supt was transferred to new tubes. Cytokine array was performed on 4 groups using pooled samples from 2-3 mice:
Signals were quantified using ImageJ. Data was normalized by calculating the ratio of PAC-1/vehicle mean pixel density as shown in the plot.

[6] = system: lung tumor microenvironment; experiment: Immune cell populations in lungs, PBMC and spleen after tumor challenge; type: in vivo, BALB/c mice
From the text: FIG. 13. Analysis of neutrophil and macrophage populations after treatment with PAC-1 14 days post-tumor challenge in lungs, PBMC, and spleen. Open circle=vehicle+anti-IgG2A antibody; square=PAC-1+anti-IgG2a antibody; triangle=vehicle+anti-PD-1 mAb; inverted triangle=PAC-1+anti-PD-1 mAb.
FIG. 14. Analysis of T-cells, B-cells, and NK cell populations in the lungs, PBMC, and spleen of BALB/c mice 26 days post combinatorial PAC-1 and anti-PD-1 treatment. Open circle=vehicle+anti-IgG2A antibody; square=PAC-1+anti-IgG2a antibody; triangle=vehicle+anti-PD-1 mAb; inverted triangle=PAC-1+anti-PD-1 mAb.
FIG. 15. PD-L1 expression on the surface of dendritic cells and CD45^− tumor cells 26 days post-tumor challenge in lungs, PBMC, and spleen of BALB/c mice. Open circle=vehicle+anti-IgG2A antibody; square=PAC-1+anti-IgG2a antibody; triangle=vehicle+anti-PD-1 mAb; inverted triangle=PAC-1+anti-PD-1 mAb.

[7] = combination with immune cytokine TRAIL, in culture; cited from earlier work
PMBCs = conditions: cited from earlier work
[8] = single-agent treatment; cited from earlier work
[9] = HT-29 cells, sub-lethal PAC-1, 72 hours

Structure (SMILES)	Selectivity of MLH1 cleavage, cancer cell lines vs normal cell line HFF-1 (HT-29 cells; 72 hours)	PARP-1 cleavage (apoptosis marker) (HT-29 cells; [9])	PC-3 activation and MLH1 cleavage (HT-29 cells; [9])	Cmax (clinical)	Number of TILs (CD3+ cells) (GL261 neurospheres)	Number of TILs (CD3+ cells) (B16F10 cells)	Secondary malignancies [1]	Ill effects on prolonged dosing [2]	Markers associated with resistance to anti-PD-1 therapy (IPRES) (cancer cells [3])	Upregulated genes in transcript profile (cancer cells [3])	Myelosuppression [4]	DNA damage (cancer cells [5])	Tumor growth (CT-26_WT cells)	Plasma cytokines (ratio PAC-1/vehicle mean pixel density) (plasma cytokines)	Neutrophils and macrophages in lung tumor microenvironment ([6]; day 14 post-tumor challenge)	Macrophages and dendritic cells in tumor microenvironment ([6]; day 26)	Extrinsic cell death [7]	Toxicity to PBMCs (PMBCs)	Fraction of patients developing secondary malignancies [8]
C=CCc1cccc(/C=N/NC(=O)CN2CCN(Cc3ccccc3)CC2)c1O [PAC-1]	cancer cell specific MLH1 cleavage	little to no PARP-1 cleavage	induced PC-3 activation and MLH1 cleavage	7.8 µM	increased the number of TILs	increased the number of TILs	remain free of secondary malignancies	no ill effects	no upregulation	upregulation of key genes including TNFα, innate immune system agonists IL-1β and IL-8	has not been observed to induce myelosuppression	causes DNA damage selectively in cancer cells	large variation in controlling sc CT-26_WT growth	increase in cytokines that promote macrophage differentiation as well as B-cell and T-cell proliferation	appear to increase	have decreased	can enhance extrinsic cell death in culture	minimal toxicity to PMBCs	
CCCS(=O)(=O)Nc1ccc(F)c(C(=O)c2c[nH]c3ncc(-c4ccc(Cl)cc4)cc23)c1F [vemurafenib]																			⅓
